{"source": "PubChem BioAssay (NCI)", "assay_in_all_cases": "inhibition of tumour cell growth, NCI panel, 48 h", "key": {"[1]": {"tested_on": "SNB-19 CNS"}, "[2]": {"tested_on": "786-0 renal"}, "[3]": {"tested_on": "HCC-2998 colon"}, "[4]": {"tested_on": "SK-MEL-2 melanoma"}, "[5]": {"tested_on": "MOLT-4 leukemia"}, "[6]": {"tested_on": "HCT-116 colon"}, "[7]": {"tested_on": "HCT-15 colon"}, "[8]": {"tested_on": "UO-31 renal"}, "[9]": {"tested_on": "UACC-62 melanoma"}, "[10]": {"tested_on": "SR leukemia"}, "[11]": {"tested_on": "MCF7 breast"}, "[12]": {"tested_on": "NCI/ADR-RES ovarian"}, "[13]": {"tested_on": "T-47D breast"}, "[14]": {"tested_on": "U251 CNS"}, "[15]": {"tested_on": "NCI-H522 lung"}, "[16]": {"tested_on": "SN12C renal"}, "[17]": {"tested_on": "HOP-92 NSCLC"}, "[18]": {"tested_on": "MALME-3M melanoma"}, "[19]": {"tested_on": "PC-3 prostate"}, "[20]": {"tested_on": "SW-620 colon"}, "[21]": {"tested_on": "MDA-MB-435"}, "[22]": {"tested_on": "SF-539 CNS"}, "[23]": {"tested_on": "DU-145 prostate"}, "[24]": {"tested_on": "RXF 393 renal"}, "[25]": {"tested_on": "OVCAR-3 ovarian"}, "[26]": {"tested_on": "UACC-257 melanoma"}, "[27]": {"tested_on": "NCI-H460 lung"}, "[28]": {"tested_on": "KM12 colon"}, "[29]": {"tested_on": "ACHN renal"}}, "note": "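Test compounds were applied to cells in 96-well plates for 48 hours at 5 doses. GI50 marks 50% less growth. Definition used: TGI = concentration required for complete inhibition of growth.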", "data": [{"compound": "CN(C)CCCOc1c2ccccc2nc2c1oc1ccc(Cl)cc12", "values": [{"measurement": "GI50", "setting": "[1]", "result": 3.93, "unit": "µM"}, {"measurement": "TGI", "setting": "[1]", "result": 16.3, "unit": "µM"}, {"measurement": "GI50", "setting": "[2]", "result": 3.32, "unit": "µM"}, {"measurement": "TGI", "setting": "[2]", "result": 15.3, "unit": "µM"}, {"measurement": "GI50", "setting": "[3]", "result": 3.12, "unit": "µM"}, {"measurement": "TGI", "setting": "[3]", "result": 13.9, "unit": "µM"}, {"measurement": "GI50", "setting": "[4]", "result": 6.35, "unit": "µM"}, {"measurement": "TGI", "setting": "[4]", "result": 18.9, "unit": "µM"}, {"measurement": "GI50", "setting": "[5]", "result": 3.19, "unit": "µM"}, {"measurement": "TGI", "setting": "[5]", "result": 14, "unit": "µM"}, {"measurement": "GI50", "setting": "[6]", "result": 1.87, "unit": "µM"}, {"measurement": "TGI", "setting": "[6]", "result": 13, "unit": "µM"}, {"measurement": "GI50", "setting": "[7]", "result": 3.07, "unit": "µM"}, {"measurement": "TGI", "setting": "[7]", "result": 12.5, "unit": "µM"}, {"measurement": "GI50", "setting": "[8]", "result": 2.32, "unit": "µM"}, {"measurement": "TGI", "setting": "[8]", "result": 12.1, "unit": "µM"}, {"measurement": "GI50", "setting": "[9]", "result": 5.11, "unit": "µM"}, {"measurement": "TGI", "setting": "[9]", "result": 19.1, "unit": "µM"}, {"measurement": "GI50", "setting": "[10]", "result": 3.02, "unit": "µM"}, {"measurement": "TGI", "setting": "[10]", "result": 12.2, "unit": "µM"}, {"measurement": "GI50", "setting": "[11]", "result": 2.88, "unit": "µM"}, {"measurement": "TGI", "setting": "[11]", "result": 10.3, "unit": "µM"}, {"measurement": "GI50", "setting": "[12]", "result": 1.94, "unit": "µM"}, {"measurement": "TGI", "setting": "[12]", "result": 10.2, "unit": "µM"}, {"measurement": "GI50", "setting": "[13]", "result": 4.92, "unit": "µM"}, {"measurement": "TGI", "setting": "[13]", "result": 20.7, "unit": "µM"}, {"measurement": "GI50", "setting": "[14]", "result": 3.36, "unit": "µM"}, {"measurement": "TGI", "setting": "[14]", "result": 13.7, "unit": "µM"}, {"measurement": "GI50", "setting": "[15]", "result": 2.76, "unit": "µM"}, {"measurement": "TGI", "setting": "[15]", "result": 11.1, "unit": "µM"}, {"measurement": "GI50", "setting": "[16]", "result": 3.01, "unit": "µM"}, {"measurement": "TGI", "setting": "[16]", "result": 14.1, "unit": "µM"}, {"measurement": "GI50", "setting": "[17]", "result": 1.75, "unit": "µM"}, {"measurement": "TGI", "setting": "[17]", "result": 8.01, "unit": "µM"}, {"measurement": "GI50", "setting": "[18]", "result": 2.77, "unit": "µM"}, {"measurement": "TGI", "setting": "[18]", "result": 9.64, "unit": "µM"}, {"measurement": "GI50", "setting": "[19]", "result": 3.16, "unit": "µM"}, {"measurement": "TGI", "setting": "[19]", "result": 12.3, "unit": "µM"}, {"measurement": "GI50", "setting": "[20]", "result": 1.92, "unit": "µM"}, {"measurement": "TGI", "setting": "[20]", "result": 10.1, "unit": "µM"}, {"measurement": "GI50", "setting": "[21]", "result": 3.44, "unit": "µM"}, {"measurement": "TGI", "setting": "[21]", "result": 12.7, "unit": "µM"}, {"measurement": "GI50", "setting": "[22]", "result": 3.24, "unit": "µM"}, {"measurement": "TGI", "setting": "[22]", "result": 13, "unit": "µM"}, {"measurement": "GI50", "setting": "[23]", "result": 4.14, "unit": "µM"}, {"measurement": "TGI", "setting": "[23]", "result": 14.5, "unit": "µM"}, {"measurement": "GI50", "setting": "[24]", "result": 2.58, "unit": "µM"}, {"measurement": "TGI", "setting": "[24]", "result": 8.7, "unit": "µM"}, {"measurement": "GI50", "setting": "[25]", "result": 5.2, "unit": "µM"}, {"measurement": "TGI", "setting": "[25]", "result": 17.5, "unit": "µM"}, {"measurement": "GI50", "setting": "[26]", "result": 3.44, "unit": "µM"}, {"measurement": "TGI", "setting": "[26]", "result": 13.3, "unit": "µM"}, {"measurement": "GI50", "setting": "[27]", "result": 3.06, "unit": "µM"}, {"measurement": "TGI", "setting": "[27]", "result": 11.6, "unit": "µM"}, {"measurement": "GI50", "setting": "[28]", "result": 4.18, "unit": "µM"}, {"measurement": "TGI", "setting": "[28]", "result": 18.5, "unit": "µM"}, {"measurement": "GI50", "setting": "[29]", "result": 2.2, "unit": "µM"}]}]}
